Calls of active or inactive are those of the source. The calls are words filed in the database; no cut-off is given here.
How the values were obtained:
[1] = Therapeutic index, ratio of TD50 for HFF to IC50 for tachyzoite stage of Toxoplasma gondii expressing beta-gal infected in HFF; assay type: toxicity; conditions: human; read-out: TI
[2] = Cytotoxicity against HFF by CellTiter96 AQueous one solution cell proliferation assay; assay type: cell-based; conditions: human, HFF cells; read-out: TD50 (the source's name)
Toxoplasma gondii [3] = experiment: Antiparasitic activity against tachyzoite stage of Toxoplasma gondii expressing beta-gal infected in HFF after 4 days by […] based assay; assay type: functional, organism-based; conditions: 96 h
Toxoplasma gondii [4] = experiment: Antiparasitic activity against tachyzoite stage of Toxoplasma gondii infected in HFF assessed as inhibition of parasite replication by measuring parasitophorous vacuoles containing 1, 2, 4 and 8 tachyzoites at 10 uM after 24 hrs by microscopic analysis; assay type: functional, organism-based
Toxoplasma gondii [5] = experiment: Antiparasitic activity against tachyzoite stage of Toxoplasma gondii infected in HFF assessed as reduction in parasite invasion at 10 uM pretreated with parasite for 20 mins followed by infection in HFF measured by immunofluorescence staining based assay; assay type: functional, organism-based
Toxoplasma gondii [6] = experiment: Antiparasitic activity against tachyzoite stage of Toxoplasma gondii infected in HFF assessed as reduction in parasite attachment to host cell at 10 uM pretreated with parasite for 20 mins followed by infection in HFF measured by immunofluorescence staining based assay; assay type: functional, organism-based
Toxoplasma gondii [7] = experiment: Antiparasitic activity against tachyzoite stage of Toxoplasma gondii infected in HFF assessed as inhibition of parasite replication by measuring parasitophorous vacuoles containing 1 or 2 tachyzoites at 10 uM after 24 hrs by microscopic analysis; assay type: functional
Toxoplasma gondii [8] = experiment: Antiparasitic activity against tachyzoite stage of Toxoplasma gondii infected in HFF assessed as inhibition of parasite replication by measuring increase in parasitophorous vacuoles containing 1 tachyzoites at 10 uM after 24 hrs by microscopic analysis; assay type: functional, organism-based

SMILES | selectivity ratio [1] | CC50 [2] | IC50 (Toxoplasma gondii [3]) | IC90 (Toxoplasma gondii [3]) | inhibition (Toxoplasma gondii [4]) | Activity (Toxoplasma gondii [5]) | Activity (Toxoplasma gondii [6]) | inhibition at 10 µM (Toxoplasma gondii [7]) | inhibition (Toxoplasma gondii [8])
CN(C)c1ccc(-c2nc(O)c3ccccc3n2)cc1 | 23 | ≥ 320 µM | 14 µM | 281 µM | inactive | Active | Active | – | –
O=c1c2ccccc2nc(-c2ccc(OCc3ccccc3)cc2)n1Cc1ccccc1 | 25 | ≥ 320 µM | 13 µM | 71 µM | – | inactive | inactive | > 70% | –
COc1ccc(-n2c(-c3ccc(OCc4ccccc4)cc3)nc3ccccc3c2=O)cc1 | 1 | 4 µM | 4 µM | 14 µM | – | Active | Active | – | –
O=c1[nH]c(-c2ccc(Br)cc2)nc2ccccc12 | 3 | ≥ 320 µM | 92 µM | 414 µM | – | Active | Active | – | Active
O=c1c2ccccc2nc(-c2ccc(Br)cc2)n1-c1ccc(Br)cc1 | 7 | ≥ 320 µM | 44 µM | 126 µM | – | – | – | – | –
O=c1[nH]c(-c2ccc(OCc3ccccc3)cc2)nc2ccccc12 | 2 | ≥ 320 µM | 153 µM | 4990 µM | – | – | – | – | –
CCCCCCn1c(-c2ccc(OC)cc2)nc2ccccc2c1=O | 4 | 42 µM | 10 µM | 48 µM | – | – | – | – | –
CN(C)c1ccc(-c2nc3ccccc3c(=O)n2C2CCCCC2)cc1 | 7 | 112 µM | 15 µM | 67 µM | – | – | – | – | –
O=c1c2ccccc2nc(-c2ccc(OCc3ccccc3)cc2)n1CCc1cc2ccccc2[nH]1 | 2 | ≥ 320 µM | 154 µM | 724 µM | – | – | – | – | –
COc1ccc(-n2c(-c3ccc4c(c3)OCO4)nc3ccccc3c2=O)cc1 | 8 | ≥ 320 µM | 40 µM | 91 µM | – | – | – | – | –
COc1ccc(-c2nc3ccccc3c(=O)n2-c2ccc(Br)cc2)cc1 | 6 | 196 µM | 31 µM | 83 µM | – | – | – | – | –
CCCCCCCCCCn1c(-c2ccc(N(C)C)cc2)nc2ccccc2c1=O | 7 | ≥ 320 µM | 49 µM | 170 µM | – | – | – | – | –
COc1ccc(-n2c(-c3ccc(Br)cc3)nc3ccccc3c2=O)cc1 | 10 | ≥ 320 µM | 32 µM | 81 µM | – | – | – | – | –
CCCCCCn1c(-c2ccc(N(C)C)cc2)nc2ccccc2c1=O | 3 | 50 µM | 18 µM | 52 µM | – | – | – | – | –
CN(C)c1ccc(-c2nc3ccccc3c(=O)n2CCc2ccc(O)cc2)cc1 | 2 | 196 µM | 112 µM | 353 µM | – | – | – | – | –
O=c1c2ccccc2nc(-c2ccc(OCc3ccccc3)cc2)n1C1CCCCC1 | 53 | ≥ 320 µM | 6 µM | 46 µM | – | inactive | inactive | > 70% | –
C[C@@H]1CC[C@H]2[C@@H](C)C(=O)O[C@@H]3O[C@@]4(C)CC[C@@H]1[C@]32OO4 [ARTEMISININ] | 160 | ≥ 320 µM | 2 µM | 19 µM | – | – | – | – | –

SMILES | selectivity ratio [1] | CC50 [2] | IC50 (Toxoplasma gondii [3]) | IC90 (Toxoplasma gondii [3]) | inhibition (Toxoplasma gondii [4]) | Activity (Toxoplasma gondii [5]) | Activity (Toxoplasma gondii [6]) | inhibition at 10 µM (Toxoplasma gondii [7]) | inhibition (Toxoplasma gondii [8])
CCCCCCn1c(-c2ccc(OCc3ccccc3)cc2)nc2ccccc2c1=O | 18 | 178 µM | 10 µM | 45 µM | inactive | Active | Active | – | –
COc1ccccc1-c1nc(O)c2ccccc2n1 | 5 | 305 µM | 56 µM | 266 µM | – | – | – | – | –
COc1ccc(-c2nc3ccccc3c(=O)[nH]2)cc1 | 6 | 125 µM | 20 µM | 121 µM | – | – | – | – | –
O=c1c2ccccc2nc(-c2ccc(OCc3ccccc3)cc2)n1CCc1ccc(O)cc1 | 13 | 229 µM | 17 µM | 52 µM | – | – | – | – | –
O=C1C(O)=C([C@H]2CC[C@H](c3ccc(Cl)cc3)CC2)C(=O)c2ccccc21 [ATOVAQUONE] | 111 | 21 µM | 0.2 µM | 0.6 µM | – | – | – | – | –
Oc1nc(-c2ccc(F)cc2)nc2ccccc12 | 11 | ≥ 320 µM | 29 µM | 260 µM | – | – | – | – | –
CC(C)CCn1c(-c2ccc(N(C)C)cc2)nc2ccccc2c1=O | 2 | 85 µM | 35 µM | 116 µM | – | – | – | – | –
CC(C)CCn1c(-c2ccc(OCc3ccccc3)cc2)nc2ccccc2c1=O | 10 | 118 µM | 12 µM | 55 µM | – | – | – | – | –
O=c1c2ccccc2nc(-c2ccc(OCc3ccccc3)cc2)n1-c1ccc(Br)cc1 | 2 | 5 µM | 3 µM | 12 µM | – | Active | – | > 75% | Active
CN(C)c1ccc(-c2nc3ccccc3c(=O)n2Cc2ccccc2)cc1 | 11 | 133 µM | 12 µM | 60 µM | – | – | – | – | –
Oc1nc(-c2cccnc2)nc2ccccc12 | 3 | ≥ 320 µM | 94 µM | 225 µM | – | – | – | – | –
CCCCCCn1c(-c2ccc(Br)cc2)nc2ccccc2c1=O | 1 | 88 µM | 60 µM | 193 µM | – | Active | Active | – | Active
CCCCCCCCCCn1c(-c2ccc(OCc3ccccc3)cc2)nc2ccccc2c1=O | 13 | ≥ 320 µM | 25 µM | 119 µM | – | – | – | – | –
O=c1[nH]c(-c2ccc(OC(F)(F)F)cc2)nc2ccccc12 | 12 | ≥ 320 µM | 27 µM | 447 µM | – | – | – | – | –
O=c1[nH]c(-c2ccc3c(c2)OCO3)nc2ccccc12 | 6 | ≥ 320 µM | 50 µM | 443 µM | – | – | – | – | –
CC(C)=CCCC(C)=CCn1c(-c2ccc(OCc3ccccc3)cc2)nc2ccccc2c1=O | 46 | ≥ 320 µM | 7 µM | 58 µM | – | inactive | inactive | > 70% | –

From ChEMBL document CHEMBL4219182, “One-pot, multicomponent synthesis of 2,3-disubstituted quinazolin-ones with potent and selective activity against Toxoplasma gondii” (Bioorg Med Chem Lett, 2018)
